Measurements as given in ChEMBL document CHEMBL1240303, “Inhibiting transcription of chromosomal DNA with antigene peptide nucleic acids” (2005).
Active and inactive are the calls of the source. The calls are words filed in the database; no cut-off is given here.

Columns and labels:
[1] = test system: T47D; assay: Inhibition of human progesterone receptor A protein expression transfected in human T47D cells at 200 nM by Western blot; type: functional
[2] = test system: T47D; assay: Inhibition of human progesterone receptor B protein expression transfected in human T47D cells at 200 nM by Western blot; type: functional
[3] = test system: T47D; assay: Induction of morphology changes in human T47D cells expressing human progesterone receptor assessed as increase in cell height by confocal microscopy; type: functional, cell-based
[4] = test system: T47D; assay: Reduction in cell proliferation of human T47D cells expressing human progesterone receptor by FACS method; type: functional, cell-based
[5] = test system: T47D; assay: Increase in Ezrin mRNA expression in human T47D cells expressing human progesterone receptor by RT-PCR relative to untreated control; type: functional

| Structure (SMILES) | inhibition [1] | inhibition [2] | Activity [3] | Activity [4] | fold change (FC) [5] |
| --- | --- | --- | --- | --- | --- |
| Cc1cn(CC(=O)N(CCNC(=O)CN(CCNC(=O)CN(CCNC(=O)CN(CCNC(=O)CN(CCNC(=O)CN(CCNC(=O)CN(CCNC(=O)CNC(=O)[C@@H](N)CCCCN)C(=O)Cn2c(N)ccnc2=O)C(=O)Cn2cnc3c(N)ncnc32)C(=O)Cn2c(N)ccnc2=O)C(=O)Cn2cnc3nc(N)[nH]c(=O)c32)C(=O)Cn2cnc3c(N)ncnc32)C(=O)Cn2cc(C)c(=O)[nH]c2=O)CC(=O)NCCN(CC(=O)NCCN(CC(=O)NCCN(CC(=O)NCCN(CC(=O)NCCN(C(=O)CNCCN(CC(=O)NCCN(CC(=O)NCCN(CC(=O)NCCN(CC(=O)NCCN(CC(=O)NCCN(CC(=O)NCCN(CC(=O)N[C@@H](CCCCN)C(=O)O)C(=O)Cn2cc(C)c(=O)[nH]c2=O)C(=O)Cn2cc(C)c(=O)[nH]c2=O)C(=O)Cn2cc(C)c(=O)[nH]c2=O)C(=O)Cn2cnc3nc(N)[nH]c(=O)c32)C(=O)Cn2cc(C)c(=O)[nH]c2=O)C(=O)Cn2cnc3c(N)ncnc32)C(=O)Cn2c(N)ccnc2=O)C(=O)Cn2cnc3nc(N)[nH]c(=O)c32)C(=O)Cn2cc(C)c(=O)[nH]c2=O)C(=O)Cn2c(N)ccnc2=O)C(=O)Cn2cc(C)c(=O)[nH]c2=O)C(=O)Cn2cc(C)c(=O)[nH]c2=O)c(=O)[nH]c1=O | inactive | inactive | inactive | inactive | – |
| Cc1cn(CC(=O)N(CCNCC(=O)N(CCNC(=O)CN(CCNC(=O)CN(CCNC(=O)CN(CCNC(=O)CN(CCNC(=O)CN(CCNC(=O)CN(CCNC(=O)CN(CCNC(=O)CN(CCNC(=O)CN(CCNC(=O)CN(CCNC(=O)CN(CCNC(=O)CNC(=O)[C@@H](N)CCCCN)C(=O)Cn2cc(C)c(=O)[nH]c2=O)C(=O)Cn2cnc3nc(N)[nH]c(=O)c32)C(=O)Cn2c(N)ccnc2=O)C(=O)Cn2c(N)ccnc2=O)C(=O)Cn2c(N)ccnc2=O)C(=O)Cn2c(N)ccnc2=O)C(=O)Cn2c(N)ccnc2=O)C(=O)Cn2cnc3c(N)ncnc32)C(=O)Cn2cnc3nc(N)[nH]c(=O)c32)C(=O)Cn2cnc3c(N)ncnc32)C(=O)Cn2c(N)ccnc2=O)C(=O)Cn2cnc3c(N)ncnc32)CC(=O)NCCN(CC(=O)NCCN(CC(=O)NCCN(CC(=O)NCCN(CC(=O)NCCN(CC(=O)NCCN(CC(=O)N[C@@H](CCCCN)C(=O)O)C(=O)Cn2c(N)ccnc2=O)C(=O)Cn2cnc3nc(N)[nH]c(=O)c32)C(=O)Cn2cnc3nc(N)[nH]c(=O)c32)C(=O)Cn2cc(C)c(=O)[nH]c2=O)C(=O)Cn2c(N)ccnc2=O)C(=O)Cn2cnc3nc(N)[nH]c(=O)c32)c(=O)[nH]c1=O | inactive | inactive | – | – | – |
| Cc1cn([C@H]2C[C@H](OP(=O)(O)OC[C@H]3O[C@@H](n4cc(C)c(=O)[nH]c4=O)C[C@@H]3O)[C@@H](COP(=O)(O)O[C@H]3[C@@H](O)[C@H](n4ccc(=O)[nH]c4=O)O[C@@H]3COP(=O)(O)O[C@H]3[C@@H](O)[C@H](n4ccc(N)nc4=O)O[C@@H]3COP(=O)(O)O[C@H]3[C@@H](O)[C@H](n4cnc5c(N)ncnc54)O[C@@H]3COP(=O)(O)O[C@H]3C[C@H](n4cnc5c(N)ncnc54)O[C@@H]3COP(=O)(O)O[C@H]3[C@@H](O)[C@H](n4ccc(N)nc4=O)O[C@@H]3COP(=O)(O)O[C@H]3C[C@H](n4cnc5c(N)ncnc54)O[C@@H]3COP(=O)(O)O[C@H]3[C@@H](O)[C@H](N4CC=C(N)NC4=O)O[C@@H]3COP(=O)(O)O[C@H]3[C@@H](O)[C@H](n4cnc5c(=O)[nH]c(N)nc54)O[C@@H]3COP(=O)(O)O[C@H]3[C@@H](O)[C@H](n4cnc5c(N)ncnc54)O[C@@H]3COP(=O)(O)O[C@H]3[C@@H](O)[C@H](N4CC=C(N)NC4=O)O[C@@H]3COP(=O)(O)O[C@H]3[C@@H](O)[C@H](n4cnc5c(=O)[nH]c(N)nc54)O[C@@H]3COP(=O)(O)O[C@H]3[C@@H](O)[C@H](n4cnc5c(=O)[nH]c(N)nc54)O[C@@H]3COP(=O)(O)O[C@H]3[C@@H](O)[C@H](n4cnc5c(=O)[nH]c(N)nc54)O[C@@H]3COP(=O)(O)O[C@H]3C[C@H](n4cnc5c(N)ncnc54)O[C@@H]3COP(=O)(O)O[C@H]3[C@@H](O)[C@H](n4cnc5c(N)ncnc54)O[C@@H]3COP(=O)(O)O[C@H]3[C@@H](O)[C@H](n4cnc5c(=O)[nH]c(N)nc54)O[C@@H]3COP(=O)(O)O[C@H]3[C@@H](O)[C@H](n4cnc5c(=O)[nH]c(N)nc54)O[C@@H]3COP(=O)(O)O[C@H]3[C@@H](O)[C@H](n4ccc(=O)[nH]c4=O)O[C@@H]3COP(=O)(O)O[C@H]3[C@@H](O)[C@H](n4cnc5c(N)ncnc54)O[C@@H]3CO)O2)c(=O)[nH]c1=O | – | – | Active | Active | – |
| Cc1cn([C@@H]2O[C@H](COP(=O)(O)O[C@H]3[C@@H](O)[C@H](n4cnc5c(=O)[nH]c(N)nc54)O[C@@H]3COP(=O)(O)O[C@H]3[C@@H](O)[C@H](n4ccc(=O)[nH]c4=O)O[C@@H]3COP(=O)(O)O[C@H]3C[C@H](n4cnc5c(N)ncnc54)O[C@@H]3COP(=O)(O)O[C@H]3[C@@H](O)[C@H](N4CC=C(N)NC4=O)O[C@@H]3COP(=O)(O)O[C@H]3[C@@H](O)[C@H](n4ccc(=O)[nH]c4=O)O[C@@H]3COP(=O)(O)O[C@H]3[C@@H](O)[C@H](N4CC=C(N)NC4=O)O[C@@H]3COP(=O)(O)O[C@H]3C[C@H](n4cnc5c(=O)[nH]c(N)nc54)O[C@@H]3COP(=O)(O)O[C@H]3[C@@H](O)[C@H](n4ccc(N)nc4=O)O[C@@H]3COP(=O)(O)O[C@H]3[C@@H](O)[C@H](n4ccc(N)nc4=O)O[C@@H]3COP(=O)(O)O[C@H]3[C@@H](O)[C@H](n4ccc(N)nc4=O)O[C@@H]3COP(=O)(O)O[C@H]3[C@@H](O)[C@H](n4ccc(N)nc4=O)O[C@@H]3COP(=O)(O)O[C@H]3[C@@H](O)[C@H](n4ccc(=O)[nH]c4=O)O[C@@H]3COP(=O)(O)O[C@H]3[C@@H](O)[C@H](n4cnc5c(=O)[nH]c(N)nc54)O[C@@H]3COP(=O)(O)O[C@H]3[C@@H](O)[C@H](n4ccc(=O)[nH]c4=O)O[C@@H]3COP(=O)(O)O[C@H]3C[C@H](n4ccc(=O)[nH]c4=O)O[C@@H]3COP(=O)(O)O[C@H]3[C@@H](O)[C@H](n4cnc5c(=O)[nH]c(N)nc54)O[C@@H]3COP(=O)(O)O[C@H]3[C@@H](O)[C@H](n4ccc(=O)[nH]c4=O)O[C@@H]3COP(=O)(O)O[C@H]3[C@@H](O)[C@H](n4cnc5c(=O)[nH]c(N)nc54)O[C@@H]3COP(=O)(O)O[C@H]3[C@@H](O)[C@H](n4cnc5c(=O)[nH]c(N)nc54)O[C@@H]3CO)[C@@H](OP(=O)(O)OC[C@H]3O[C@@H](n4cc(C)c(=O)[nH]c4=O)C[C@@H]3O)[C@H]2O)c(=O)[nH]c1=O | – | – | Active | Active | 5.5 |
